Experiments:
[1] = target: CD73 activity in U138-MG cells (Homo sapiens (Human), UniProt P21589); experiment: U138-MG inhibition assay (inorganic phosphate from AMP, PiColorLock Gold); format: cell-based; details: 100 μM AMP, 30 min pre-incubation, 1 hour at 37° C.
Procedure: U138-MG cells from ATCC are cultured in DMEM (Gibco 31966) with 10% FBS. Cells are seeded into 96-well culture plates (5,000 cell/well) in 100 μL of media for 24 hr. Cells are washed twice with 200 μL of assay buffer (20 mM HEPES, pH 7.4; 137 mM NaCl; 5.4 mM KCl; 1.3 mM CaCl2; 4.2 mM NaHCO3; 1 mg/mL glucose) to remove residual inorganic phosphate. CD73 inhibitor is added to each well in 100 μl volume and preincubated for 30 mins at 37° C. An equal volume of AMP substrate (Sigma A1572) is added to each well at a final concentration of 100 μM and incubated at 37° C. for 1 hour. Control wells containing cells but lacking added AMP, define the assay signal equivalent to 100% inhibition of CD73 activity. Supernatant is removed for measurement of inorganic phosphate using the PiColorLock Gold kit (Abcam, ab 270004).
The IC50 values of test compounds are determined as the inflection point of the sigmoidal concentration response curve.

[2] = target: human (h)CD73 (amino acids Trp27-Lys547) (Homo sapiens, UniProt P21589); experiment: CD73 inhibition assay (Malachite Green phosphate detection); format: biochemical; details: 250 pM hCD73, 12.5 μM AMP, 20 min pre-incubation, absorbance 620 nm
Procedure: Compound inhibition of human (h)CD73 (amino acids Trp27-Lys547, R&D Systems 5795-EN-500) enzymatic activity was tested via the Malachite Green Phosphate Detection Kit (R&D DY996). Experiments were performed in 20 μL Tris buffer (25 mM Tris pH 7.5, 5 mM MgCl2, 0.002% Tween20), with 250 pM of hCD73. Test compounds of interest were prepared in a threefold serial dilution in DMSO and added to the assay to give the appropriate final concentration, with the assay DMSO concentration being 1%. Compounds were pre-incubated for 20 minutes with hCD73 in a 384 well clear plate (Greiner 781101), followed by the addition of adenosine monophosphate (AMP) to 12.5 μM. The enzymatic reaction was carried out for 20 min at room temperature. 5 μL of Malachite kit reagent A was added to stop the reaction (contains 3M H2SO4) and after 10 min, 5 μL of Malachite kit reagent B was added (Malachite Green). After 30 min, absorbance at 620 nm was read on a BMG Pherastar FSX.
Data were normalised to measurements in the absence of competing compound (0% inhibition) and in the presence of 10 μM control compound (100% inhibition).

CD73 in whole blood = CD73 in whole blood (Homo sapiens (Human), UniProt P21589); experiment: Whole blood AMP Glo assay; format: cell-based; details: whole blood of healthy volunteers, 10 μM AMP, 30 min pre-incubation, 15 min at 37° C., levamisole 1.5 mM
Sequence of CD73 in whole blood (P21589 27-574): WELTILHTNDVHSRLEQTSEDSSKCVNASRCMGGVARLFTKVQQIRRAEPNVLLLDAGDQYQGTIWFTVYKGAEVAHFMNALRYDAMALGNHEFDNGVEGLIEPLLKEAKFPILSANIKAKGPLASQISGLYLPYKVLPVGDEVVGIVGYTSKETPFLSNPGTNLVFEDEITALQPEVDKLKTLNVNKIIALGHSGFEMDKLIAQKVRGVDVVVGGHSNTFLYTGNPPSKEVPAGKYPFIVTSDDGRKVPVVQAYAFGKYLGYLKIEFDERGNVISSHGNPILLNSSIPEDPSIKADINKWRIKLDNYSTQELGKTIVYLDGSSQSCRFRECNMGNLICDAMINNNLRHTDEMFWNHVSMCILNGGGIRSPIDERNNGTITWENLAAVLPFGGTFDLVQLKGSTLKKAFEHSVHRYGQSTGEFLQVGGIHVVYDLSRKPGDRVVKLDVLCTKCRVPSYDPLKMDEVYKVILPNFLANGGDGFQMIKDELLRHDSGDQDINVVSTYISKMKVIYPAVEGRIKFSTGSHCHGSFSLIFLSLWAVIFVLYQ
Procedure: Blood is drawn from healthy volunteers by venepuncture and anti-coagulated with Lithium Heparin (10 IU/mi). 150 μl of blood is added to U-bottom polypropylene 96-well assay plates pre-filled with 20 μl of compound dilutions prepared in RPMI also containing the Tissue Non-specific Alkaline Phosphatase inhibitor Levamisole (final assay concentration 1.5 mM). Control wells to define uninhibited CD73 contain DMSO in place of compound. Control wells to define complete stabilization of AMP attributable to CD73 contain LY3475070 (CAS: 2375815-63-5) at 30 μM final assay concentration.
Compounds are pre-incubated with whole blood at 37° C. for 30 minutes. Following this, AMP is added in a 30 μl volume for a final assay concentration of 10 μM, mixed, and the plates are incubated for 15 minutes at 37° C. Final DMSO concentration/well is 0.6% and final volume/well is 200 μL. After incubating with AMP, the plates are placed on ice and then centrifuged at 2000 g for 10 minutes at 4° C. Plasma is removed and then diluted 1:10 with pre-chilled HBSS (Ca2+& Mg2+free) and kept on ice.
The stabilized AMP concentration in diluted plasma is measured using AMP-Glo kit (Promega), in parallel with a standard curve of known AMP concentrations, with a final volume of 40 μl in white flat bottom half-well 96-well plates (Corning). Signal is measured by Luminescence. The IC50 values of test compounds are determined as the inflection point of the sigmoidal concentration response curve.

Sequence of CD73 activity in U138-MG cells (P21589 27-574): as above

CC1(C)CN(c2ncnc3sc(-c4c[nH]c(=O)[nH]c4=O)cc23)C1 [Example 1.2, 5-[4-(3,3-Dimethylazetidin-1-yl)thieno[2,3-d]pyrimidin-6-yl]-1H-pyrimidine-2,4-dione]
IC50 [1]: 1010 nM | IC50 [2]: 428 nM

O=c1[nH]cc(-c2cc3c(N4CCC(OCc5ccccc5)C4)ncnc3s2)c(=O)[nH]1 (centres unmarked) [Example 4.2, 5-[4-(3-Benzyloxypyrrolidin-1-yl)thieno[2,3-d]pyrimidin-6-yl]-1H-pyrimidine-2,4-dione]
IC50 [1]: 3140 nM | IC50 [2]: 197 nM

CC1(C)CN(c2ncnc3nc(-c4c[nH]c(=O)[nH]c4=O)sc23)CC1(F)F [Example 6.1, 5-[7-(3,3-difluoro-4,4-dimethyl-pyrrolidin-1-yl)thiazolo[4,5-d]pyrimidin-2-yl]-1H-pyrimidine-2,4-dione]
IC50 [1]: 66 nM | IC50 [2]: 94 nM

O=c1[nH]cc(-c2cc3c(N4CCC(OCCN5CCCCC5)C4)nccc3s2)c(=O)[nH]1 (centres unmarked) [Example 9, 5-[4-[3-[2-(1-Piperidyl)ethoxy]pyrrolidin-1-yl]thieno[3,2-c]pyridin-2-yl]-1H-pyrimidine-2,4-dione]
IC50 [2]: 283 nM

O=c1[nH]cc(-n2cc3c(N4C[C@@H]5COC[C@H]5C4)ncnc3n2)c(=O)[nH]1 [Example 13.10, 5-[4-[(3aR,6aR)-1,3,3a,4,6,6a-Hexahydrofuro[3,4-c]pyrrol-5-yl]pyrazolo[3,4-d]pyrimidin-2-yl]-5H-pyrimidine-2,4-dione]
IC50 [1]: 2500 nM

CC1(C)CN(c2ccnc3sc(-c4c[nH]c(=O)[nH]c4=O)cc23)CC1(F)F [Example 14.1, 5-[4-(3,3-Difluoro-4,4-dimethyl-pyrrolidin-1-yl)thieno[2,3-b]pyridin-2-yl]-1H-pyrimidine-2,4-dione]
IC50 [1]: 1320 nM | IC50 [2]: 256 nM

O=c1[nH]cc(-c2cc3c(NCc4ccc(Cl)cc4)ncnc3o2)c(=O)[nH]1 [Example 19.2, 5-[4-[(4-Chlorophenyl)methylamino]furo[2,3-d]pyrimidin-6-yl]-1H-pyrimidine-2,4-dione]
IC50 [2]: 9730 nM

CC(C)NC(=O)OCC(F)(F)CNc1ncnc2oc(-c3c[nH]c(=O)[nH]c3=O)cc12 [Example 20, [3-[[6-(2,4-Dioxo-1H-pyrimidin-5-yl)furo[2,3-d]pyrimidin-4-yl]amino]-2,2-difluoro-propyl]N-isopropylcarbamate]
IC50 [1]: 744 nM | IC50 [2]: 834 nM

CC(C)NC(=O)OC1CN(c2ncnc3oc(-c4c[nH]c(=O)[nH]c4=O)cc23)CC1(F)F (centres unmarked) [Example 22.2, [1-[6-(2,4-Dioxo-1H-pyrimidin-5-yl)furo[2,3-d]pyrimidin-4-yl]-4,4-difluoro-pyrrolidin-3-yl]N-isopropylcarbamate]
IC50 [1]: 54.9 nM | IC50 [2]: 170 nM

O=c1[nH]cc(-c2cc3c(N4CC(F)(F)C5(CC5)C4)nccn3n2)c(=O)[nH]1 [Example 25.2, 5-[4-(7,7-Difluoro-5-azaspiro[2.4]heptan-5-yl)pyrazolo[1,5-a]pyrazin-2-yl]-1H-pyrimidine-2,4-dione]
IC50 [1]: 58.8 nM | IC50 [2]: 83.7 nM

COC1CN(c2nccn3nc(-c4c[nH]c(=O)[nH]c4=O)cc23)CC1(F)F (centres unmarked) [Example 25.3, 5-[4-(3,3-difluoro-4-methoxy-pyrrolidin-1-yl)pyrazolo[1,5-a]pyrazin-2-yl]-1H-pyrimidine-2,4-dione]
IC50 [1]: 91 nM | IC50 [2]: 54.7 nM

O=c1[nH]cc(-c2cc3c(N4CCC5(COC5)C4)nccn3n2)c(=O)[nH]1 [Example 25.4, 5-[4-(2-oxa-7-azaspiro[3.4]octan-7-yl)pyrazolo[1,5-a]pyrazin-2-yl]-1H-pyrimidine-2,4-dione]
IC50 [1]: 115 nM | IC50 [2]: 141 nM

O=c1[nH]cc(-c2cc3c(N4CC(O)C(F)(F)C4)nccn3n2)c(=O)[nH]1 (centres unmarked) [Example 25.5, 5-[4-(3,3-difluoro-4-hydroxy-pyrrolidin-1-yl)pyrazolo[1,5-a]pyrazin-2-yl]-1H-pyrimidine-2,4-dione]
IC50 [1]: 170 nM | IC50 [2]: 71.9 nM

CN1CCOC(COC2CN(c3nccn4nc(-c5c[nH]c(=O)[nH]c5=O)cc34)CC2(F)F)C1 (centres unmarked) [Example 25.6, 5-[4-[3,3-difluoro-4-[(4-methylmorpholin-2-yl)methoxy]pyrrolidin-1-yl]pyrazolo[1,5-a]pyrazin-2-yl]-1H-pyrimidine-2,4-dione]
IC50 [1]: 46 nM | IC50 [2]: 99 nM

O=c1[nH]cc(-c2cc3c(N4CC(OCCN5CCOCC5)C(F)(F)C4)nccn3n2)c(=O)[nH]1 (centres unmarked) [Example 25.7, 5-[4-[3,3-difluoro-4-(2-morpholinoethoxy)pyrrolidin-1-yl]pyrazolo[1,5-a]pyrazin-2-yl]-1H-pyrimidine-2,4-dione]
IC50 [1]: 65 nM | IC50 [2]: 132 nM

CC1(C)CN(c2ncc(F)n3nc(-c4c[nH]c(=O)[nH]c4=O)cc23)CC1(F)F [Example 25.10, 5-[4-(3,3-difluoro-4,4-dimethyl-pyrrolidin-1-yl)-7-fluoro-pyrazolo[1,5-a]pyrazin-2-yl]-1H-pyrimidine-2,4-dione]
IC50 [1]: 5 nM | IC50 (CD73 in whole blood): 56 nM

Cc1cnc(N2CC(C)(C)C(F)(F)C2)c2cc(-c3c[nH]c(=O)[nH]c3=O)nn12 [Example 25.11, 5-[4-(3,3-difluoro-4,4-dimethyl-pyrrolidin-1-yl)-7-methyl-pyrazolo[1,5-a]pyrazin-2-yl]-1H-pyrimidine-2,4-dione]
IC50 [1]: 23 nM | IC50 (CD73 in whole blood): 200 nM

CC1(C)CN(c2ncc(I)n3nc(-c4c[nH]c(=O)[nH]c4=O)cc23)CC1(F)F [Example 25.12, 5-[4-(3,3-difluoro-4,4-dimethyl-pyrrolidin-1-yl)-7-iodo-pyrazolo[1,5-a]pyrazin-2-yl]-1H-pyrimidine-2,4-dione]
IC50 [1]: 38 nM

O=c1[nH]cc(-c2cc3c(N4CC(O)C(F)(F)C4)ncc(Cl)n3n2)c(=O)[nH]1 (centres unmarked) [Example 25.13, 5-[7-Chloro-4-(3,3-difluoro-4-hydroxy-pyrrolidin-1-yl)pyrazolo[1,5-a]pyrazin-2-yl]-1H-pyrimidine-2,4-dione]
IC50 [1]: 12 nM | IC50 (CD73 in whole blood): 5 nM

Cc1nc(N2CC(C)(C)C(F)(F)C2)c2cc(-c3c[nH]c(=O)[nH]c3=O)nn2c1Cl [Example 25.15, 5-[7-Chloro-4-(3,3-difluoro-4,4-dimethyl-pyrrolidin-1-yl)-6-methyl-pyrazolo[1,5-a]pyrazin-2-yl]-1H-pyrimidine-2,4-dione]
IC50 [1]: 18 nM

COC1CN(c2ncc(F)c3nn(-c4c[nH]c(=O)[nH]c4=O)cc23)CC1(F)F (centres unmarked) [Example 26.2, 5-[4-(3,3-difluoro-4-methoxy-pyrrolidin-1-yl)-7-fluoro-pyrazolo[4,3-c]pyridin-2-yl]-1H-pyrimidine-2,4-dione]
IC50 [1]: 12 nM | IC50 [2]: 43.3 nM

O=c1[nH]cc(-n2cc3c(N4CC(O)C(F)(F)C4)ncc(F)c3n2)c(=O)[nH]1 (centres unmarked) [Example 26.3, 5-[4-(3,3-difluoro-4-hydroxy-pyrrolidin-1-yl)-7-fluoro-pyrazolo[4,3-c]pyridin-2-yl]-1H-pyrimidine-2,4-dione]
IC50 [1]: 16 nM | IC50 [2]: 35.1 nM

CN1CCOC(COC2CN(c3ncc(F)c4nn(-c5c[nH]c(=O)[nH]c5=O)cc34)CC2(F)F)C1 (centres unmarked) [Example 26.6, 5-[4-[3,3-difluoro-4-[(4-methylmorpholin-2-yl)methoxy]pyrrolidin-1-yl]-7-fluoro-pyrazolo[4,3-c]pyridin-2-yl]-1H-pyrimidine-2,4-dione]
IC50 [1]: 11 nM | IC50 [2]: 59 nM
